Tests used:
[1] = target: T1, 5-Lipoxygenase from HWBL-1 20,000 xg Supernatant (Rattus norvegicus, UniProt P12527); assay: 5-lipoxygenase inhibition, 20,000 xg supernatant of homogenized HWBL-1 cells, radiolabeled arachidonic acid; assay type: biochemical; conditions: read-out: IC50 (in vitro inhibitory potency against 5-lipoxygenase)
T1 construct: 20,000 xg supernatant from 1.5 million homogenized HWBL-1 cells; endogenous in cells
T1 sequence (P12527 1-673): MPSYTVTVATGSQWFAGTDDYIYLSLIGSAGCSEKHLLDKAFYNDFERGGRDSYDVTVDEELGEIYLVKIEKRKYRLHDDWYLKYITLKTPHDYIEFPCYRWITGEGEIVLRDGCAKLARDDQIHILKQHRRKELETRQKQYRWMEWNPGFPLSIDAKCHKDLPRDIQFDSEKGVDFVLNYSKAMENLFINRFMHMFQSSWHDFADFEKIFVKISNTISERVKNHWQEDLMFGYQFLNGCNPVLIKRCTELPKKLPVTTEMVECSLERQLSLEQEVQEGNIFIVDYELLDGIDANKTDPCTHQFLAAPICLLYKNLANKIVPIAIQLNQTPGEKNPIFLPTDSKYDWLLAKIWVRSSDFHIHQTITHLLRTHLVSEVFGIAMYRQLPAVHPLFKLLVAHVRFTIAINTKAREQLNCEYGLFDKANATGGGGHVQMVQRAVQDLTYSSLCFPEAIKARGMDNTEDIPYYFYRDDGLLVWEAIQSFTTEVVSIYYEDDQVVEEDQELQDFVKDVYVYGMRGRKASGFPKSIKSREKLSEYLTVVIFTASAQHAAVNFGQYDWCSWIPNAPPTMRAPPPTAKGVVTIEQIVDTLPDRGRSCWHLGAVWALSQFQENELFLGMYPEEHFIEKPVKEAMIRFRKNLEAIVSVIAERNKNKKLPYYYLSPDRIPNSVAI
Protocol: Assays to determine 5-lipoxygenase inhibitory activity of representative compounds of the present invention were performed in […] incubations containing the 20,000 xg supernatant from 1.5 million homogenized HWBL-1 cells and various concentrations of the test compound. Reactions were initiated by addition of radiolabeled arachidonic acid and terminated by acidification and ether extraction. Reaction products were separated from nonconverted substrate by thin layer chromatography and measured by liquid scintillation spectroscopy. All incubations are performed in triplicate. Inhibition of 5-lipoxygenase activity was calculated as the ratio of the amount of product formed in the presence and absence of inhibitor. IC50 values (concentration of compound producing 50% enzyme inhibition) were calculated by linear regression analysis of percentage inhibition versus log inhibitor concentration plots. (Dyer, R. D.; Haviv, F.; Hanel, A. M.; Bornemier, D. A.; Carter, G. W. Fed. Proc., Fed. Am. Soc. Exp. Biol. 1984, 43, 1462A).
In Vitro Inhibitory Potencies of Compounds of this Invention
Against 5-Lipoxygenase from HWBL-1 20,000 xg Supernatant

Leukotrienes = assay: inhibition of leukotriene biosynthesis in vivo, rat peritoneal anaphylaxis model, oral; conditions: oral gavage, 1 h before antigen challenge; for inhibition in vivo at 100 µmol/kg: 100 μmol/kg, read-out: % Inhibition of Leukotrienes, Oral Dose at 100 μmol/kg; for inhibition in vivo at 30 µmol/kg: read-out: % Inhibition of Leukotrienes, Oral Dose at 30 μmol/kg
Protocol: Inhibition of the biosynthesis of leuktrienes in vivo after oral administration of compound was determined using a rat peritoneal anaphylaxis model in a similar manner as that described by Young and coworkers (Young, P. R.; Dyer, R. D.; Carter, G. W. Fed. Proc., Fed. Am. Soc. Exp. Biol. 1985, 44, 1185). In this model rats were injected intraperitoneally (ip) with rabbit antibody to bovine serum albumin (BSA) and three hours later injected ip with BSA to induce an antgen-antibody response. Rats were sacrificed 15 minutes after this challenge and the peritoneal fluids were collected and analyzed for leukotriene levels. Test compounds were administered by gavage one hour prior to the antigen challenge. Percent inhibition values were determined by comparing the treatment group to the mean of the control group.

IC50 [1] | Molecule | inhibition in vivo at 100 µmol/kg (Leukotrienes) | inhibition in vivo at 30 µmol/kg (Leukotrienes; 30 μmol/kg) | % Inhibition of Leukotrienes, Oral Dose at 50 μmol/kg (Leukotrienes) | % Inhibition of Leukotrienes, Oral Dose at 30 μmol/kg (Leukotrienes; 30 μmol/kg)
230 nM | NC(=O)N(O)CCNC(=O)c1cccc(Oc2ccccc2)c1 [Example 2] | 84% |  |  | 
70 nM | NC(=O)N(O)CCCNC(=O)c1cccc(Oc2ccccc2)c1 [Example 21] | 95% |  |  | 
220 nM | NC(=O)N(O)CCNC(=O)c1cccc(OCc2ccccc2)c1 [Example 35, N-Hydroxy-N-[2-((3-phenylmethyloxybenzoyl)amino)ethyl]urea] | 15% |  |  | 
130 nM | NC(=O)N(O)CCNC(=O)c1ccc(Oc2ccccc2)o1 [Example 36, N-Hydroxy-N-[2-((5-phenoxyfuran-2-oyl)amino)ethyl]urea] |  | 78% |  | 
100 nM | CN(CCN(O)C(N)=O)Cc1cccc(Oc2ccc(Cl)cc2)c1 [Example 37, N-Hydroxy-N-[2-(N-methyl-((3-(4-chlorophenoxy)phenyl)methyl)amino)ethyl]urea] | 80% |  |  | 
240 nM | NC(=O)N(O)CCNC(=O)c1ccccc1Oc1ccccc1 [Example 51, N-Hydroxy-N-[2-((2-phenoxybenzoyl)amino)ethyl]urea] |  | 47% |  | 
160 nM | NC(=O)N(O)CCNC(=O)c1ccc(Oc2ccccc2)cc1 [Example 52, N-Hydroxy-N-[2-((4-phenoxybenzoyl)amino)ethyl]urea] |  | 19% |  | 
440 nM | NC(=O)N(O)CCNC(=O)c1cccc(Oc2ccc(Br)cc2)c1 [Example 53, N-Hydroxy-N-[2-(3-((4-bromophenoxy)benzoyl)amino)ethyl]urea] |  | 33% |  | 
110 nM | NC(=O)N(O)CCNC(=O)c1ccc(Oc2ccc(Cl)cc2)o1 [Example 58, N-Hydroxy-N-[2-((5-(4-chlorophenoxy)furan-2-oyl)amino)ethyl]urea] |  |  | 81% | 
280 nM | C[C@@H](CN(O)C(N)=O)NC(=O)c1ccc(Oc2ccc(F)cc2)o1 [Example 60] | 84% |  |  | 
1000 nM | NC(=O)N(O)CCNC(=O)c1cc2ccccc2o1 [Example 63, N-Hydroxy-N-[((benzo[b]furan-2-oyl)amino)ethyl]urea] |  | 52% |  | 
280 nM | CC(CCNC(=O)c1ccc(Oc2ccc(F)cc2)o1)N(O)C(N)=O (centres unmarked) [Example 88, N-Hydroxy-N-[4-((5-(4-fluorophenoxy)furan-2-oyl)amino)but-2-yl]urea] |  | 84% |  | 
910 nM | N-Hydroxy-N-[2-((3-(4-chlorophenylsulfonyl)benzoyl)amino)ethyl]urea [Example 62] |  |  |  | 

Continued, molecule first:

Molecule | IC50 [1] | inhibition in vivo at 100 µmol/kg (Leukotrienes) | inhibition in vivo at 30 µmol/kg (Leukotrienes; 30 μmol/kg) | % Inhibition of Leukotrienes, Oral Dose at 50 μmol/kg (Leukotrienes) | % Inhibition of Leukotrienes, Oral Dose at 30 μmol/kg (Leukotrienes; 30 μmol/kg)
CCCCOc1cccc(C(=O)NCCN(O)C(N)=O)c1 [Example 19] | 260 nM | 63% |  |  | 
CNC(=O)N(O)CCCNC(=O)c1cccc(Oc2ccccc2)c1 [Example 23, N-Hydroxy-N'-methyl-N-[3-((3-phenoxybenzoyl)amino)propyl]urea] |  |  | 57% |  | 
NC(=O)N(O)CCNC(=O)c1cccc(Oc2ccc(Cl)cc2)c1 [Example 26, N-Hydroxy-N-[2-((3-(4-chlorophenoxy)benzoyl)amino)ethyl]urea] | 160 nM | 99% |  |  | 
C[C@H](CN(O)C(N)=O)NC(=O)c1cccc(Oc2ccccc2)c1 [Example 32, (R)-N-Hydroxy-N-[2-((3-phenoxybenzoyl)amino)propyl]urea] | 210 nM | 90% |  |  | 
COc1ccc(Oc2cccc(CN(C)CCN(O)C(N)=O)c2)cc1 [Example 38] | 200 nM | 86% |  |  | 
CN(CCN(O)C(N)=O)Cc1cccc(Oc2cc(Cl)cc(Cl)c2)c1 [Example 40, N-Hydroxy-N-[2-(N-methyl-((3-(3,5-dichlorophenoxy)phenyl)methyl)amino)ethyl]urea] | 150 nM | 76% |  |  | 
NC(=O)N(O)CCNC(=O)c1cccc(Oc2ccc(F)cc2)c1 [Example 54, N-Hydroxy-N-[2-(3-((4-fluorophenoxy)benzoyl)amino)ethyl]urea] | 150 nM |  | 11% |  | 
NC(=O)N(O)CCNC(=O)c1cccc(Oc2ccccn2)c1 [Example 55, N-Hydroxy-N-[2-((3-(pyrid-2-yloxy)benzoyl)amino)ethyl]urea] | 1000 nM | 83% |  |  | 
NC(=O)N(O)CCNC(=O)Cc1cccc(Oc2ccccc2)c1 [Example 56, N-Hydroxy-N-[2-((3-phenoxyphenylacetyl)amino)ethyl]urea] | 220 nM | 85% |  |  | 
NC(=O)N(O)CCNC(=O)c1ccc(Oc2ccc(F)cc2)o1 [Example 61] | 160 nM |  |  | 60% | 
NC(=O)N(O)CCNC(=O)COc1ccccc1Oc1ccccc1 [Example 73, N-Hydroxy-N-[2-((2-phenoxyphenoxyacetyl)amino)ethyl]urea] |  |  | 53% |  | 
CC(CNC(=O)OC(C)(C)C)N(O)C(N)=O (centres unmarked) [Example 85, (d.l)-N-Hydroxy-N-[3-((tert-butyoxycarbonyl)amino)prop-2-yl]urea] | 290 nM |  |  |  | 
CC(Oc1ccccc1C(=O)NCCN(O)C(N)=O)c1ccccc1 (centres unmarked) [Example 87, N-Hydroxy-N-[2-((2-(1-phenylethyloxy)benzoyl)amino)ethyl]urea] | 370 nM | 60% |  |  | 
N-Hydroxy-N-[((4-chlorobenzo[b]thien-2-oyl)amino)ethyl]urea [Example 64] | 2100 nM |  |  |  | 92%

— patent publication US5214204A, “Arylamidoalkyl-N-hydroxyurea compounds having lipoxygenase inhibitory activity” (Abbott Laboratories, priority 1991, dated 1993)
